According to patent US20220332839A1, “USE OF PRG4 TO TREAT CANCER” (Lubris LLC, priority 2019, published 2022):

How the values were obtained:
3TP-Lux reporter = experiment: 3TP-Lux luciferase reporter assay; type: cell-based, human; details: 100 pM TGFβ
Procedure: MDA-MB-231 cells were seeded in 24-well plates at approximately 6×10^4 cells/well one day prior to transfections. Cells were co-transfected with the PAI1-promoter-driven firefly luciferase Reporter (3TP-Lux) and the CMV-Renilla luciferase control reporter constructs. 18 h post transfection, cells were serum-starved (0.2% FBS containing DMEM) for 4 h and then incubated in fresh low-serum (0.2% FBS containing DMEM) containing media in the absence or presence of 100 pM TGFβ, 100 μg/mL rhPRG4 alone or together and left overnight. Lysates were prepared and analyzed for luciferase activity using a commercially available dual luciferase assay kit (Promega, Canada). Arbitrary luciferase activity (relative light units) values were normalized to Renilla luciferase activity to account for variations in transfection efficiency. For each transfection, percent increase of PAI1 promoter driven luciferase reporter gene expression was also determined and expressed relative to luciferase activity of the respective basal condition lysates. Each experimental condition was carried out in triplicate.

MDA-MB-231 cells = experiment: In vitro trans-well invasion assay; type: cell-based, human
Procedure: Overnight 0.2% FBS-containing DMEM incubated, i.e. serum-starved, MDA-MB-231 cells were used for the transwell invasion using polycarbonate filters (24-well insert, pore size 8 μm; BD Biosciences, Canada). Prior to addition of cells, each insert was placed within a well of a 24-well tissue culture plate and equilibrated with 0.5 mL serum-free DMEM, added both to the upper and lower chambers at 37° C. for 2 h. The equilibration media was then gently removed and upper chamber surface of the insert was coated with 50 μL of 3% Matrigel and allowed to solidify at 37° C. for 1 h. 1×10^5 serum-starved MDA-MB-231 cells were resuspended in 0.5 mL of serum-free DMEM and added to the upper Matrigel-coated chamber. 500 μL complete growth medium alone or containing specific reagents, as described in the respective figure descriptions, was added to the lower chambers. Cells were allowed to invade the matrix for 12 h at 37° C. after which non-adherent cells were removed by PBS washing of cell layers on the upper chamber three times. During the second wash a cotton tip applicator was used to gently scrape away the adherent cells on the upper surface of the membrane. Invading cells were fixed by immersing the transwell inserts in 100% methanol for 10 minutes at −20° C., followed by staining with 0.5% crystal violet dye (EMD Millipore, Canada) for 1 h at room temperature. Eight randomly chosen fields of each stained membrane were imaged at 10× objective of a DIC microscope (Olympus IX70) coupled to a digital camera. Cell numbers were obtained by counting the number of crystal violet stained cells in each field using a handheld counter. The average cell numbers for all images per treatment conditions were calculated and used for further statistical analysis. Each experiment was performed at least three independent times.

immobilized CD44-IgG1Fc = target: T1, immobilized CD44-IgG1Fc (Homo sapiens, UniProt P16070); experiment: Surface plasmon resonance binding of rhPRG4 to CD44 and competition with HMW HA
T1 construct: purchased R & D systems
Procedure: Binding of rhPRG4 to CD44-IgG1Fc was investigated using surface plasmon resonance (Biacore T100, GE Healthcare Lifesciences, NJ, USA). Series S chips were functionalized using the human antibody capture kit (GE Life Sciences) and either CD44-IgG1Fc or IgG1FC was allowed to bind to the surface of the functionalized chips in flow cell 1 (Fc1) and flow cell 2 (Fc2), respectively. rhPRG4 was injected at 30 μL/min for 8 min at concentrations of 300, 250, 200, 150, 100 and 50 μg/mL followed by a 10 min dissociation using 0.1M HEPES, 1.5M NaCl, 30 mM EDTA, and 0.5% P20 (GE Life Sciences). The surface of the chip was regenerated at the end of each cycle with 1 min pulse of 3M MgCl2. Each analyte concentration was injected in duplicate. The resulting curves were double referenced (i.e. Fc2-Fc1, followed by subtraction of the 0 μg/mL curve). The binding kinetics and binding affinity were determined by BiaEvaluation software, using 1:1 binding/conformational change model or by steady-state equilibrium, respectively. To study the competition between rhPRG4 and HMW HA in binding to CD44, rhPRG4 was injected at concentrations ranging between 0 and 300 μg/mL as described above. Following the end of dissociation phase, HMW HA was injected at 50 μg/mL (30 μL per min) for 1 min. […]

Hep3B = experiment: 72-hour proliferation assay, Hep3B; type: cell-based, human; details: only at the highest rhPRG4 concentrations; drug 2.5 μM
Procedure: Proliferation assay: In 100 μl complete medium, 3,000 cells were seeded in wells of a 96-well plate and left overnight to allow complete attachment. The next day (at time t=0 hours), the medium was removed and replaced with 100 μl of fresh medium in the presence/absence of Sorafenib (2.5 μM), Regorafenib (2.5 μM), rhPRG4 (12.5 to 100 μg/ml). Dimethyl sulfoxide (DMSO) and PBS+0.01% Tween-20 were used as vehicles of Sorafenib/Regorafenib, and rhPRG4, respectively. Cells in triplicate wells for each cell line were fixed at t=0 hours with 4% paraformaldehyde (PFA, pH 7.6, 10 min incubation), then stained with crystal violet (CV) and thoroughly washed to remove the excess staining. After 72 hours, the cells were fixed by adding 100 μl of 4% PFA directly to the medium (2% final PFA concentration, 20 min incubation), and processed for CV staining as previously described. Then, 100 or 200 μl of 1% sodium dodecyl-sulphate were added to the wells and the plates were left under shaking until complete CV release from stained cells. Optical density was at 595 nm wavelength measured using a plate reader.

colon cancer = experiment: Treatment of a human with colon cancer, systemic administration; type: in vivo; details: 500 mg rhPRG4 via central venous catheter, once weekly for four weeks
Procedure: An 80 kg human diagnosed with colon cancer is administered recombinant human PRG4 (rhPRG4) by systemic administration via a central venous catheter. A total amount of 500 mg of rhPRG4 in 250 mL of physiological saline at a concentration of 2.0 mg/mL of lubricin is administered to create a blood concentration of approximately 100 μg/mL. The dose is administered once weekly for four weeks.

| Substance | 3TP-Lux reporter activity, TGFβ alone (3TP-Lux reporter) | invasion of cells, stimulus alone vs untreated control (MDA-MB-231 cells; 100 pM TGFβ, 400 μg/mL LMWHA) | Kd (immobilized CD44-IgG1Fc; based on a rhPRG4 molecular weight of 240 KDa, read-out: apparent Kd) [nM] | effect on binding of HMW HA to recombinant CD44 (immobilized CD44-IgG1Fc; rhPRG4 0-300 μg/mL, then HMW HA 50 μg/mL) | rhPRG4-drug synergistic effect (Hep3B) | tumor size by CT scan after four weeks (colon cancer) | TGFβ-induced 3TP-Lux reporter activity (3TP-Lux reporter; 100 μg/mL rhPRG4, overnight, 0.2% FBS) | invasion of cells in the absence or presence of TGFβ (MDA-MB-231 cells; 100 μg/mL rhPRG4, 100 pM TGFβ, 12 h) | cell invasion in the presence of LMWHA (MDA-MB-231 cells; 400 μg/mL LMWHA, 5 μg/mL CD44 neutralizing antibody, 100 μg/mL rhPRG4) |
| --- | --- | --- | --- | --- | --- | --- | --- | --- | --- |
| TGFβ: recombinant human mature transforming growth factor beta (R&D systems) [reference compound] | significant induction of 3TP-Lux reporter activity | promote the invasion of MDA-MB-231 cells | – | – | – | – | – | – | – |
| rhPRG4: full-length recombinant human PRG4 (lubricin) glycoprotein produced by CHO-M cells; residues 25-1404 of SEQ ID NO:1 | – | – | ~38 | interfered with binding of HMW HA | present during Hep3B proliferation, even if lower | decreased in size | did not alter TGFβ-induced 3TP-Lux reporter activity | blocked the ability of MDA-MB-231 cells to be invasive | able to inhibit breast cancer cell invasion |
